Results as given in patent US9365522B2, “Pyrazole amide derivative” (AMGEN INC., priority 2015, dated 2016).

Target: T1, ligand binding domain of human ROR gamma (Homo sapiens, UniProt P51449)
T1 construct: NM_001001523; expressed in transfected cells; host or cells: HEK293T
T1 sequence (P51449 247-497 isoform P51449-2): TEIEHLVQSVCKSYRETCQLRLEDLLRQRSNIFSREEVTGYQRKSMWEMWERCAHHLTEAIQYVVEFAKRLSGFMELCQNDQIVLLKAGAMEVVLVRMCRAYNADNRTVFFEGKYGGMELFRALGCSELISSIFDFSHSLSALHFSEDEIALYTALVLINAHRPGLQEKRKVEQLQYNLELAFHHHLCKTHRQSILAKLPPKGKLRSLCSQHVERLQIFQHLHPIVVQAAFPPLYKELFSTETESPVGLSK
Experiment: ROR gamma reporter gene assay (GAL4-RORγ LBD luciferase, Dual-Glo)
Assay type: cell-based
Conditions: HEK293T cells transfected with pM-ROR gamma, 8 concentrations 3.5 nM to 10.5 μM, 24 h incubation
Summary of the method: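 First, HEK293T cells are transfected with the GAL4–RORγ LBD construct, a 5×UAS luciferase reporter and a constitutive renilla control. Next, test compounds are added over eight concentrations (3.5 nM to 10.5 μM). After 24 h at 37 °C, Dual-Glo luminescence is measured and pIC50 fitted.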

Compound | result (pIC50, inhibition of RORγ transcriptional activity)
trans-4-(4-((2-(3-chloro-5-fluoropyridin-4-yl)- 2-oxoethyl)-(2,2-dimethylbutyl)carbamoyl)-5- (trifluoromethyl)pyrazol-1-yl)-1- methylcyclohexane-1-carboxylic acid [Example 337] | 7.20

Same assay, conditions: HEK293T cells transfected with pM-ROR gamma, 8 concentrations 3.5 nM to 10.5 μM, 24 h incubation; read-out: result (pIC50, inhibition of RORγ transcriptional activity) (converted)

Compound | IC50 [pM]
CC(C)(C)SCCN(CC(=O)c1c(Cl)cc(F)cc1Cl)C(=O)c1cnn([C@H]2CC[C@](C)(C(=O)O)CC2)c1C(F)(F)F [Example 348, trans-4-(4-(2-tert-butylsulfanylethyl-(2-(2,6-dichloro-4-fluorophenyl)-2-oxoethyl)carbamoyl)-5-(trifluoromethyl)pyrazol-1-yl)-1-methylcyclohexane-1-carboxylic acid] | 155000
CC(C)N1CCC(N(CC(=O)c2c(Cl)cc(F)cc2Cl)C(=O)c2cnn([C@H]3CC[C@](C)(C(=O)O)CC3)c2C(F)(F)F)CC1 [Example 296, trans-4-(4-((2-(2,6-dichloro-4-fluorophenyl)-2-oxoethyl)-(1-propan-2-ylpiperidin-4-yl)carbamoyl)-5-(trifluoromethyl)pyrazol-1-yl)-1-methylcyclohexane-1-carboxylic acid] | > 1.05e+07
CC1(C)[C@@H]2C[C@H](N(CC(=O)c3c(Cl)cccc3Cl)C(=O)c3cnn(C45CCC(C(=O)O)(CC4)CC5)c3C(F)(F)F)C[C@@H]21 [Example 320, 4-(4-((2-(2,6-dichlorophenyl)-2-oxoethyl)((1R,3r,5S)-6,6-dimethylbicyclo[3.1.0]hexan-3-yl)carbamoyl)-5-(trifluoromethyl)-1H-pyrazol-1-yl)bicyclo [2.2.2] octane-1-carboxylic acid] | 9770
CC1(C)CCC(CN(CC(=O)c2c(Cl)cncc2Cl)C(=O)c2cnn([C@H]3CC[C@H](C(=O)O)CC3)c2C(F)(F)F)CC1 [Example 36, trans-4-(4-((2-(3,5-dichloropyridin-4-yl)-2-oxoethyl)((4,4-dimethylcyclohexyl)methyl)carbamoyl)-5-(trifluorornethyl)-1H-pyrazol-1-yl)cyclohexanecarboxylic acid] | 117000
COc1cccc(Cl)c1C(=O)CN(CC1CCC(C)(C)CC1)C(=O)c1cnn([C@H]2CC[C@](C)(C(=O)O)CC2)c1C(F)(F)F [Example 259, trans-4-(4-((2-(2-chloro-6-methoxyphenyl)-2-oxoethyl)-((4,4-dimethylcyclohexyl)methyl)carbamoyl)-5-(trifluoromethyl)pyrazol-1-yl)-1-methylcyclohexane-1-carboxylic acid] | 117000
O=C(CN(C(=O)c1cnn([C@H]2CC[C@H](C(=O)O)CC2)c1C(F)(F)F)[C@H]1CC[C@@H](C(F)(F)F)CC1)c1c(Cl)cncc1Cl [Example 212, trans-4-(4-((2-(3,5-dichloropyridin-4-yl)-2-oxoethyl)-(4-(trifluoromethyl)cyclohexyl)carbamoyl)-5-(trifluoromethyl)pyrazol-1-yl)cyclohexane-1-carboxylic acid] | 20000
CC(C)(C)CCN(CC(=O)c1c(Cl)cncc1Cl)C(=O)c1cnn([C@H]2CC[C@H](C(=O)O)CC2)c1C(F)(F)F [Example 33, trans-4-(4-((2-(3,5-dichloropyridin-4-yl)-2-oxoethyl)(3,3-dimethylbutyl)carbamoyl)-5-(trifluorornethyl)-1H-pyrazol-1-yl)cyclohexanecarboxylic acid] | 112000
O=C(CN(CC1(F)CCCC1)C(=O)c1cnn(C23CCC(C(=O)O)(CC2)CC3)c1C(F)(F)F)c1c(Cl)cc(Cl)cc1Cl [Example 298, 4-(4-((1-fluorocyclopentyl)methyl-(2-oxo-2-(2,4,6-trichlorophenyl)ethyl)carbamoyl)-5-(trifluoromethyl)pyrazol-1-yl)bicyclo[2.2.2]octane-1-carboxylic acid] | 12900
C[C@]1(C(=O)O)CC[C@@H](n2ncc(C(=O)N(CC(=O)c3c(Cl)cncc3Cl)Cc3ccc(F)cc3)c2C(F)(F)F)CC1 [Example 79, trans-4-(4-((2-(3,5-dichloropyridin-4-yl)-2-oxoethyl)(4-fluorobenzyl)carbamoyl)-5-(trifluoromethyl)-1H-pyrazol-1-yl)-1-methylcyclohexanecarboxylic acid] | 209000
CC1(C)[C@@H]2C[C@H](N(C[C@H](O)c3ccccc3C(F)(F)F)C(=O)c3cnn([C@H]4CC[C@](C)(C(=O)O)CC4)c3C(F)(F)F)C[C@@H]21 [Example 372, trans-4-(4-(((1R,3r,5S)-6,6-dimethylbicyclo[3.1.0]hexan-3-yl)(2-hydroxy-2-(2-(trifluoromethyl)phenyl)ethyl)carbamoyl)-5-(trifluoromethyl)-1H-pyrazol-1-yl)-1-methylcyclohexanecarboxylic acid] | 331000
CC1(C)[C@@H]2C[C@H](N(CC(=O)c3c(Cl)cccc3OC(F)F)C(=O)c3cnn([C@H]4CC[C@](C)(C(=O)O)CC4)c3C(F)(F)F)C[C@@H]21 [Example 400, trans-4-(4-((2-(2-chloro-6-(difluoromethoxy)phenyl)-2-oxyethyl)((1R,3r,5S)-6,6-dimethylbicyclo[3.1.0]hexan-3-yl)carbamoyl)-5-(trifluoromethyl)-1H-pyrazol-1-yl)-1-methylcyclohexanecarboxylic acid] | 28800
CC(C)(C)S(=O)(=O)CCN(CC(=O)c1c(Cl)cc(F)cc1Cl)C(=O)c1cnn([C@H]2CC[C@](C)(C(=O)O)CC2)c1C(F)(F)F [Example 350, trans-4-(4-(2-tert-butylsulfonylethyl-(2-(2,6-dichloro-4-fluorophenyl)-2-oxoethyl)carbamoyl)-5-(trifluoromethyl)pyrazol-1-yl)-1-methylcyclohexane-1-carboxylic acid] | 1.15e+06
Cc1c(C(=O)N(CC(=O)c2c(Cl)cccc2Cl)[C@H]2C[C@@H]3[C@H](C2)C3(C)C)cnn1[C@H]1CC[C@](C)(C(=O)O)CC1 [Example 364, trans-4-(4-((2-(2,6-dichlorophenyl)-2-oxoethyl)((1R,3r,5S)-6,6-dimethylbicyclo[3.1.0]hexan-3-yl)carbamoyl)-5-methyl-1H-pyrazol-1-yl)-1-methylcyclohexanecarboxylic acid] | 45700
CC(C)(C)OCCN(CC(=O)c1c(Cl)cncc1Cl)C(=O)c1cnn([C@H]2CC[C@](C)(C(=O)O)CC2)c1C(F)(F)F [Example 318, trans-4-(4-((2-(3,5-dichloropyridin-4-yl)-2-oxoethyl)-(2-((2-methylpropan-2-yl)oxy)ethyl)carbamoyl)-5-(trifluoromethyl)pyrazol-1-yl)-1-methylcyclohexane-1-carboxylic acid] | 20000

Now from value to compound:

IC50 [pM] | Compound
209000 | O=C(CN(Cc1cccc(O)c1)C(=O)c1cnn([C@H]2CC[C@H](C(=O)O)CC2)c1C(F)(F)F)c1c(Cl)cncc1Cl [Example 153, trans-4-(4-((2-(3,5-dichloropyridin-4-yl)-2-oxoethyl)-((3-hydroxyphenyl)methyl)carbamoyl)-5-(trifluoromethyl)pyrazol-1-yl)cyclohexane-1-carboxylic acid]
3.39e+06 | Cc1coc(C)c1C(=O)CN(Cc1cc(F)cc(F)c1)C(=O)c1cnn([C@H]2CC[C@H](C(=O)O)CC2)c1C(F)(F)F [Example 63, trans-4-(4-((3,5-difluorobenzyl)(2-(2,4-dimethylfuran-3-yl)-2-oxoethyl)carbamoyl)-5-(trifluoromethyl)-1H-pyrazol-1-yl)cyclohexanecarboxylic acid]
> 1e+07 | O=C(CN(Cc1cc(F)cc(F)c1)C(=O)c1cnn([C@H]2CC[C@H](C(=O)O)CC2)c1C(F)(F)F)c1c(Cl)cc(O)cc1Cl [Example 70, trans-4-(4-((2-(2,6-dichloro-4-hydroxyphenyl)-2-oxoethyl)(3,5-difluorobenzyl)carbarnoyl)-5-(trifluoromethyl)-1H-pyrazol-1-yl)cyclohexanecarboxylic acid]
> 1e+07 | O=C(O)c1cc(Cl)c(C(=O)CN(Cc2cc(F)cc(F)c2)C(=O)c2cnn([C@H]3CC[C@H](C(=O)O)CC3)c2C(F)(F)F)c(Cl)c1 [Example 98, trans-4-(2-((1-(4-carboxycyclohexyl)-5-(trifluoromethyl)pyrazole-4-carbonyl)-((3,5-difluorophenyl)methyl)amino)acetyl)-3,5-dichlorobenzoic acid]
95500 | O=C(CN(Cc1cc(F)cc(F)c1)C(=O)c1cnn([C@H]2CC[C@H](C(=O)O)CC2)c1C(F)(F)F)c1c(O)cccc1Cl [Example 15, trans-4-(4-((2-(2-chloro-6-hydroxyphenyl)-2-oxoethyl)(3,5-difluorobenzyl)carbamoyl)-5-(trifluoromethyl)-1H-pyrazol-1-yl)cyclohexanecarboxylic acid]
380000 | CS(=O)(=O)c1cc(Cl)c(C(=O)CN(Cc2cc(F)cc(F)c2)C(=O)c2cnn([C@H]3CC[C@H](C(=O)O)CC3)c2C(F)(F)F)c(Cl)c1 [Example 4, trans-4-(4-((2-(2,6-dichloro-4-(methylsulfonyl)phenyl)-2-oxoethyl)(3,5-difluorobenzyl)carbamoyl)-5-(trifluoromethyl)-1H-pyrazol-1-yl)cyclohexanecarboxylic acid]
398000 | O=C(CN(Cc1ccco1)C(=O)c1cnn([C@H]2CC[C@H](C(=O)O)CC2)c1C(F)(F)F)c1c(Cl)cncc1Cl [Example 46, trans-4-(4-((2-(3,5-dichloropyridin-4-yl)-2-oxoethyl)(furan-2-ylmethyl)carbamoyl)-5-(trifluoromethyl)-1H-pyrazol-1-yl)cyclohexanecarboxylic acid]
